These results are taken from patent publication US12428403B2, “N-(heterocyclyl and heterocyclylalkyl)-3-benzylpyridin-2-amine derivatives as SSTR4 agonists” (Takeda Pharmaceutical Company Limited, priority 2020, dated 2025).

Assay [1] deals with T1, SSTR4 (Homo sapiens, UniProt P31391). Kind of assay: SSTR4 I-125 somatostatin competition binding assay (CHO-K1 membranes). Also noted: host or cells: CHO-K1. Particulars: competition with I-125 labeled somatostatin, membranes from CHO-K1 overexpressing SSTR4; read-out: SSTR4 Binding pIC50 (converted). The source says: SSTR4I-125 Somatostatin Competition Binding Assay
T1 sequence (P31391 whole entry): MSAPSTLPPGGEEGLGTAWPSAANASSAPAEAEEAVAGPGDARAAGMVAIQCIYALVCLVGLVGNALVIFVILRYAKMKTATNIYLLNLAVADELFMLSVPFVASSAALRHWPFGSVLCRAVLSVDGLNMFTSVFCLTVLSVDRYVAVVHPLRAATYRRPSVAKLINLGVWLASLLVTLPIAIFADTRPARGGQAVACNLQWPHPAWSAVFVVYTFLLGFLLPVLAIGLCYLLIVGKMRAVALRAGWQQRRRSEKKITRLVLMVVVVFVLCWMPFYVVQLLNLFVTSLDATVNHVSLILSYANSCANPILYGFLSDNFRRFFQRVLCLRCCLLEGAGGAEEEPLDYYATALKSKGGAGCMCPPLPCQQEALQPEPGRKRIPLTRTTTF
Membranes from CHO-K1 cells overexpressing SSTR4 are purchased from Perkin Elmer (catalog number ES-524-M400UA). […] The scintillator sheets are melted to filters using a heat block.

The target in assay [2] is T1, SSTR4. Kind of assay: cell-based.
The target in assay [3] is SSTR1 (Homo sapiens, UniProt P30872). Kind of assay: biochemical.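 Further: competitive binding to membranes of CHO-K1 cells overexpressing SSTR1, incubated 60 min at room temperature, radioactivity read by scintillation counting after filtration.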
Sequence of SSTR1 (P30872 whole entry): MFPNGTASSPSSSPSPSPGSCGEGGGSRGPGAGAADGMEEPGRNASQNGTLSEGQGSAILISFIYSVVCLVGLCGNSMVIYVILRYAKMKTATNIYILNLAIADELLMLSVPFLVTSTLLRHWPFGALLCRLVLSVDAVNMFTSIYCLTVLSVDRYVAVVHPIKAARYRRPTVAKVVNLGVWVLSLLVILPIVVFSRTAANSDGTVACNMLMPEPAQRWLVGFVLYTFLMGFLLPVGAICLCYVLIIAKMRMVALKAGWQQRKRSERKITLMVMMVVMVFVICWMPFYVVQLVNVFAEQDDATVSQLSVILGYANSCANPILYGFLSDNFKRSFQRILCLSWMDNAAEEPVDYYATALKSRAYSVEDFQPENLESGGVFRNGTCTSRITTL
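Wherever EC50 is given: CHO-K1 cells overexpressing SSTR4, reduction of forskolin-driven cAMP after 30 min compound exposure at room temperature, cAMP read by HTRF LANCE Ultra kit.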
Description: SSTR1 I-125 Somatostatin Competition Binding Assay for Selectivity Versus SSTR1
Membranes from CHO-K1 cells overexpressing SSTR1 are purchased from Perkin Elmer (catalog number ES-520-M400UA). Test compounds are suspended in DMSO and then diluted in assay buffer (25 mM HEPES pH 7.4, 10 mM MgCl2, 1 mM CaCl2, 0.5% BSA) plus 0.4 nM I-125 labeled somatostatin (Perkin Elmer catalog number NEX389). […] Then 10 μg of SSTR1 membranes in 50 μL assay buffer are added per well. The plate is incubated for 60 minutes at room temperature. […] The contents of the assay plate are transferred to filters with a TomTech harvester and washed 5 times with 20 mM HEPES, 100 mM NaCl. […] The scintillator sheets are melted to the filters using a heat block. The filters are then read in a MicroBeta scintillation counter. Binding Ki curves are generated using Activity Base for Screening Data Management and the results are reported as pIC50.

Take `Cc1nc(N[C@@H]2CCN(C)C[C@H]2C)c(Cc2ccc(F)cc2)nc1C(N)=O` (racemic) [Example 45, 5-((trans-1,3-dimethylpiperidin-4-yl)amino)-6-(4-fluorobenzyl)-3-methylpyrazine-2-carboxamide]: the IC50 was 129 nM in assay [1] and 18200 nM in assay [3]. The compound also had an EC50 in assay [2] of 38 nM.
As to `CNC(=O)c1nc(Cc2ccc(F)cc2)c(N[C@@H]2CCN(C)C[C@H]2C)nc1C` (racemic) [Example 46, 5-((trans-1,3-dimethylpiperidin-4-yl)amino)-6-(4-fluorobenzyl)-N,3-dimethylpyrazine-2-carboxamide], the IC50 in assay [1] was 490 nM; in assay [3] it was 14500 nM. In assay [2], this compound showed a half-maximal effective concentration (EC50) of 72.4 nM.
The corresponding values for `COc1cccc(Cc2nc3cccc(C)c3nc2NCCN2CCC2)c1` (single isomer, unassigned) [Example 4, N-(2-(azetidin-1-yl)ethyl)-3-(3-methoxybenzyl)-8-methylquinoxalin-2-amine] are 38 nM, 1550 nM and 63.1 nM.
For `C[C@H](c1ccc(F)cc1)c1nc(C(N)=O)cnc1NCCN1CCCC1` (single isomer, unassigned) [Example 21], in that order: 24.5 nM, 2820 nM and 5.13 nM.
The corresponding values for `CNC(=O)c1cnc(NCCN2CCCC2)c([C@@H](C)c2ccc(F)cc2)n1` (single isomer, unassigned) [Example 23] are 63.1 nM, 13200 nM and 25.1 nM.
As for `CNC(=O)c1cnc(NCCN2CCCC2)c([C@H](C)c2ccc(F)cc2)n1` (single isomer, unassigned) [Example 24], the IC50 in assay [1] was 45.7 nM; in assay [3], 5130 nM. It took 18.6 nM to reach a half-maximal effect in assay [2] (EC50).
The corresponding values for `C[C@H](c1ccc(F)cc1)c1nc(C(N)=O)cnc1N[C@@H]1CCN(C)C1` (single isomer, unassigned) [Example 30] are 912 nM, 12300 nM and 49 nM.
The corresponding values for `C[C@H](c1ccc(F)cc1)c1nccnc1NCCN1CCCC1` (single isomer, unassigned) [Example 121] are 39.8 nM, 1380 nM and 4.37 nM.
For `Cc1nnc([C@H](C)c2ccc(F)cc2)c(NCCN2CCC2)n1` (single isomer, unassigned) [Example 133], in that order: 209 nM, 30200 nM and 42.7 nM.
Turning to `Cc1nnc([C@@H](C)c2ccc(F)cc2)c(NCCN2CCC2)n1` (single isomer, unassigned) [Example 134], the IC50 was 19.5 nM in assay [1] and 15100 nM in assay [3]. Also, the EC50 in assay [2] was 2.19 nM.
The corresponding values for `Cc1nnc([C@H](C)c2ccc(F)cc2)c(N[C@@H]2CCN(C)C2)n1` (single isomer, unassigned) [Example 141] are 93.3 nM, 25700 nM and 21.4 nM.
The corresponding values for `Cc1nnc([C@H](C)c2ccccc2)c(NCCN2CCC2)n1` (single isomer, unassigned) [Example 144] are 603 nM, 18600 nM and 38 nM.
For `Cc1nnc([C@@H](C)c2ccccc2)c(NCCN2CCC2)n1` (single isomer, unassigned) [Example 145], in that order: 25.1 nM, 14500 nM and 1.74 nM.
As to `Cc1nnc([C@H](C)c2ccc(F)cc2)c(N[C@H]2CCN(C)C2)n1` (single isomer, unassigned) [Example 146], the IC50 in assay [1] is 91.2 nM; in assay [3], 10000 nM. In assay [2], the concentration for a half-maximal effect (EC50) is 27.5 nM.
The corresponding values for `Cc1nnc([C@H](C)c2ccccc2)c(N[C@@H]2CCN(C)C2)n1` (single isomer, unassigned) [Example 149] are 174 nM, 12900 nM and 39.8 nM.
`Cc1nnc([C@@H](C)c2ccccc2)c(N[C@H]2CCN(C)C2)n1` (single isomer, unassigned) [Example 152]: the IC50 in assay [1] is 204 nM; in assay [3], 10000 nM. This compound also had a concentration giving a half-maximal response (EC50) in assay [2] of 26.9 nM.
The corresponding values for `C[C@H](c1ccc(F)cc1)c1nc(C(=O)N2CCCC2)cnc1NCCN1CCCC1` [Example 8, (R)-(6-(1-(4-fluorophenyl)ethyl)-5-((2-(pyrrolidin-1-yl)ethyl)amino)pyrazin-2-yl)(pyrrolidin-1-yl)methanone] are 141 nM, 1950 nM and 31.6 nM.
The corresponding values for `CO[C@H]1CCN(C(=O)c2cnc(NCCN3CCCC3)c([C@H](C)c3ccc(F)cc3)n2)C1` [Example 10, (6-((R)-1-(4-fluorophenyl)ethyl)-5-((2-(pyrrolidin-1-yl)ethyl)amino)pyrazin-2-yl)((S)-3-methoxypyrrolidin-1-yl)methanone] are 380 nM, 3160 nM and 26.9 nM.
For `CO[C@@H]1CCN(C(=O)c2cnc(NCCN3CCCC3)c([C@H](C)c3ccc(F)cc3)n2)C1` [Example 11, (6-((R)-1-(4-fluorophenyl)ethyl)-5-((2-(pyrrolidin-1-yl)ethyl)amino)pyrazin-2-yl)((R)-3-methoxypyrrolidin-1-yl)methanone], in that order: 214 nM, 3470 nM and 28.8 nM.
`CN1CCC1CNc1nccnc1Cc1ccc(F)cc1` (centres unmarked) [Example 110, 3-(4-fluorobenzyl)-N-((1-methylazetidin-2-yl)methyl)pyrazin-2-amine] gave an EC50 in assay [2] of 2040 nM.
The same measure, in the same setting: the figure for `CN1CCCCC1CNc1nccnc1Cc1ccc(F)cc1` (centres unmarked) [Example 112, 3-(4-fluorobenzyl)-N-((1-methylpiperidin-2-yl)methyl)pyrazin-2-amine] is 550 nM; for `CC(c1ccc(F)cc1)c1nccnc1NCCN1CCC(F)C1` (centres unmarked) [Example 117, 3-(1-(4-fluorophenyl)ethyl)-N-(2-(3-fluoropyrrolidin-1-yl)ethyl)pyrazin-2-amine] it is 224 nM; for `Cc1cnc(-c2cnc(NCCN3CCCC3)c(C(C)c3ccc(F)cc3)n2)s1` (centres unmarked) [Example 127, 3-(1-(4-fluorophenyl)ethyl)-5-(5-methylthiazol-2-yl)-N-(2-(pyrrolidin-1-yl)ethyl)pyrazin-2-amine] it is 224 nM.
On the same count and under the same terms, the figure for `Cc1cnc(-c2cnc(NCCN3CCCC3)c(C(C)c3ccc(F)cc3)n2)n1C` (centres unmarked) [Example 128, 5-(1,5-dimethyl-1H-imidazol-2-yl)-3-(1-(4-fluorophenyl)ethyl)-N-(2-(pyrrolidin-1-yl)ethyl)pyrazin-2-amine] is 81.3 nM; for `CCc1nnc(Cc2cccc(C)c2)c(NCCN2CCC2)n1` [Example 130, N-(2-(azetidin-1-yl)ethyl)-3-ethyl-6-(3-methylbenzyl)-1,2,4-triazin-5-amine] it is 7.94 nM.
Take `Cc1nnc(Cc2ccc(F)cc2)c(NCCN2CCC2)n1` [Example 135, N-(2-(azetidin-1-yl)ethyl)-6-(4-fluorobenzyl)-3-methyl-1,2,4-triazin-5-amine]: in assay [2], the half-maximal effective concentration (EC50) is 129 nM.
On the same count and under the same terms, the figure for `Cc1nnc(Cc2ccc(F)cc2)c(NC2CCN(C)CC2)n1` [Example 137, 6-(4-fluorobenzyl)-3-methyl-N-(1-methylpiperidin-4-yl)-1,2,4-triazin-5-amine] is 141 nM.
